Measured values: patent US9867825B2, “Pharmaceutical combination comprising binimetinib” (Novartis AG, priority 2012, dated 2018)
One block for each compound: values may come before it.

Experiments:
[1] = test system: Hs 944.T melanoma cells with activated NRAS; experiment: BrdU uptake assay, Hs 944.T; type: cell-based; conditions: Hs 944.T cells
Method: (§1) Three melanoma cell lines, MEL-JUSO, SK-MEL2 and Hs 944.T, which harbor the Q61X activating mutation of NRAS, were tested with Compound A and Compound B to measure their sensitivity to the inhibitors.

Hs 944.T xenografts = experiment: Compound A efficacy in Hs 944.T xenografts in nude mice; type: in vivo, mouse; conditions: for Change in body weight (%, mean ± SEM) / Change in tumor volume (mm^3, mean ± SEM) / Survival / T/C (%): oral
[2] = test system: SK-MEL2 melanoma cells with activated NRAS; experiment: BrdU uptake assay, SK-MEL2; type: cell-based; conditions: Homo sapiens, SK-MEL-2
Method: as §1

[3] = test system: MEL-JUSO melanoma cells with activated NRAS; experiment: BrdU uptake assay, MEL-JUSO; type: cell-based; conditions: Homo sapiens
Method: as §1

MEL-JUSO xenografts [4] = experiment: Compound A and Compound B efficacy in MEL-JUSO xenografts (NRAS mutant melanoma); type: in vivo; conditions: oral
Excerpt: The oncogenic drivers in a sizable fraction of melanomas are mutant alleles of NRAS that encode one of several variants at position Q61 in the protein. Similar to activated alleles of BRAF, these alleles encode constitutively activated forms of the protein that drive signaling through the MAPK pathway. One consequence of the activation of MAPK signaling is the elevation of cyclin D1 levels that help drive cell cycle progression. […] Based on these observations, the single agent and combination effects of Compound A, and the MEK1/2 inhibitor Compound B, on the in vivo proliferation of MEL-JUSO melanoma model, harboring mutant alleles of NRAS was studied. […] T/C % is defined as the mean change in tumor volume from the time of treatment initiation to the end of study. The % regression is calculated as 100×ΔT/Tinitial if ΔT<0. Complete regression is defined as non-palpable tumor.
All treatments were well-tolerated by the animals with no significant body weight loss observed over the duration of the study (Table 5).

MEL-JUSO xenografts [5] = experiment: Compound A efficacy in MEL-JUSO xenografts in SCID-beige mice; type: in vivo; conditions: Compound A 150 mg/kg qd, oral

SMILES: CN(C)C(=O)c1cc2cnc(Nc3ccc(N4CCNCC4)cn3)nc2n1C1CCCC1 [Compound A, 7-Cyclopentyl-2-(5-piperazin-1-yl-pyridin-2-ylamino)-7H-pyrrolo[2,3-d]pyrimidine-6-carboxylic acid dimethylamide]
IC50 [1]: 3830 nM
Animals classified as TR deaths due to body weight loss criteria (Hs 944.T xenografts; Compound A 150 mg/kg qd): Three animals each from the 150 mg/kg and 250 mg/kg Compound A treatment groups were classified as TR deaths due to body weight loss criteria, and excluded from data analysis.
Change in body weight (%, mean ± SEM) (Hs 944.T xenografts; Compound A 150 mg/kg qd): −12.7 ± 2.1%
Change in tumor volume (mm^3, mean ± SEM) (Hs 944.T xenografts; Compound A 150 mg/kg qd): 86 ± 17 mm^3
Survival (Hs 944.T xenografts; Compound A 150 mg/kg qd): 5/8
T/C (%) (Hs 944.T xenografts; Compound A 150 mg/kg qd): 36%
Animals classified as TR deaths due to body weight loss criteria (Hs 944.T xenografts; Compound A 250 mg/kg qd): Three animals each from the 150 mg/kg and 250 mg/kg Compound A treatment groups were classified as TR deaths due to body weight loss criteria, and excluded from data analysis.
Change in body weight (%, mean ± SEM) (Hs 944.T xenografts; Compound A 250 mg/kg qd): −19.7 ± 0.6%
Change in tumor volume (mm^3, mean ± SEM) (Hs 944.T xenografts; Compound A 250 mg/kg qd): 45 ± 25 mm^3
Survival (Hs 944.T xenografts; Compound A 250 mg/kg qd): 5/8
T/C (%) (Hs 944.T xenografts; Compound A 250 mg/kg qd): 19%
IC50 [2]: 750 nM
IC50 [3]: 360 nM
Change in body weight (%, mean ± SEM) (MEL-JUSO xenografts [4]; Compound A 75 mg/kg qd): −3.9 ± 1.5%
Change in tumor volume (mm^3, mean ± SEM) (MEL-JUSO xenografts [4]; Compound A 75 mg/kg qd): 236 ± 32 mm^3
Survival (MEL-JUSO xenografts [4]; Compound A 75 mg/kg qd): 6/6
T/C (%) (MEL-JUSO xenografts [4]; Compound A 75 mg/kg qd): 47%
Change in body weight (%, mean ± SEM) (MEL-JUSO xenografts [4]; Compound A 150 mg/kg qd): −3.9 ± 2.1%
Change in tumor volume (mm^3, mean ± SEM) (MEL-JUSO xenografts [4]; Compound A 150 mg/kg qd): 157 ± 33 mm^3
Survival (MEL-JUSO xenografts [4]; Compound A 150 mg/kg qd): 6/6
T/C (%) (MEL-JUSO xenografts [4]; Compound A 150 mg/kg qd): 32%
Change in body weight (%, mean ± SEM) (MEL-JUSO xenografts [4]; Compound A 250 mg/kg qd): −2.7 ± 1.6%
Change in tumor volume (mm^3, mean ± SEM) (MEL-JUSO xenografts [4]; Compound A 250 mg/kg qd): 9 ± 11 mm^3
Survival (MEL-JUSO xenografts [4]; Compound A 250 mg/kg qd): 6/6
T/C (%) (MEL-JUSO xenografts [4]; Compound A 250 mg/kg qd): 2%
Change in body weight (%, mean ± SEM) (MEL-JUSO xenografts [5]): −7.3 ± 1.2%
Change in tumor volume (mm^3, mean ± SEM) (MEL-JUSO xenografts [5]): −32 ± 14 mm^3
Survival (MEL-JUSO xenografts [5]): 6/6

IC50 [1]: 554 nM
IC50 [2]: 990 nM
IC50 [3]: 24 nM
SMILES: Cn1cnc2c(F)c(Nc3ccc(Br)cc3F)c(C(=O)NOCCO)cc21 [Compound B, 6-(4-bromo-2-fluorophenylamino)-7-fluoro-3-methyl-3H-benzoimidazole-5-carboxylic acid (2-hydroxyethyoxy)-amide]
Change in body weight (%, mean ± SEM) (MEL-JUSO xenografts [4]; Compound B 3.5 mg/kg bid): −0.3 ± 2.1%
Change in tumor volume (mm^3, mean ± SEM) (MEL-JUSO xenografts [4]; Compound B 3.5 mg/kg bid): 59 ± 24 mm^3
Survival (MEL-JUSO xenografts [4]; Compound B 3.5 mg/kg bid): 6/6
T/C (%) (MEL-JUSO xenografts [4]; Compound B 3.5 mg/kg bid): 12%
Change in body weight (%, mean ± SEM) (MEL-JUSO xenografts [4]; Compound B 10 mg/kg bid): 5.1 ± 1.1%
Change in tumor volume (mm^3, mean ± SEM) (MEL-JUSO xenografts [4]; Compound B 10 mg/kg bid): −47 ± 11 mm^3
Regression (%) (MEL-JUSO xenografts [4]; Compound B 10 mg/kg bid): 38%
Survival (MEL-JUSO xenografts [4]; Compound B 10 mg/kg bid): 6/6
